# Biological target: T1, PDE8A (Mus musculus, UniProt O88502)
# T1 construct: targets used in the assays are full-length proteins (as opposed to simply the catalytic domain); expressed in transfected cells; host or cells: Schizosaccharomyces pombe strains DDP13 and CHP1141
# T1 sequence (O88502 1-823): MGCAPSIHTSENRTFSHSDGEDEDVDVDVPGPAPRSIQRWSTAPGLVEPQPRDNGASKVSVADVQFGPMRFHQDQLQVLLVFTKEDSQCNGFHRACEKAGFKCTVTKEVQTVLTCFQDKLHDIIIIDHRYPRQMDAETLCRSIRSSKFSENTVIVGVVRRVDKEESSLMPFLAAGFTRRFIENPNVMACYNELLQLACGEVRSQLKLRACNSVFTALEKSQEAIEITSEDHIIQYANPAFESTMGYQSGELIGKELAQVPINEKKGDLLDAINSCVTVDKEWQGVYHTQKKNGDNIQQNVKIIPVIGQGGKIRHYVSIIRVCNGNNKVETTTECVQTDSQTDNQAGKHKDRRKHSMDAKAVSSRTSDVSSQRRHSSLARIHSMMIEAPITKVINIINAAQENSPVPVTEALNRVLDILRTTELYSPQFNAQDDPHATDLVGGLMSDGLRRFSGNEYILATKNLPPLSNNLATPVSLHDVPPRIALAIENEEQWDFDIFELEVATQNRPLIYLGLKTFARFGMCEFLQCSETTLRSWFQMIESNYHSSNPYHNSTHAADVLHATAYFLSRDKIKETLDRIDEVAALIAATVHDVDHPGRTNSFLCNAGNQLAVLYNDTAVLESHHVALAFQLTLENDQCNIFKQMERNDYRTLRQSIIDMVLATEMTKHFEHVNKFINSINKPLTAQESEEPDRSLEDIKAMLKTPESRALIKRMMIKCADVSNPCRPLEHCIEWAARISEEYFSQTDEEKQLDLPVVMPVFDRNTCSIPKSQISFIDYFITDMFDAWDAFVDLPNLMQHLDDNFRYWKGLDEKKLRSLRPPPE
# Assay: fbp1-lacZ β-galactosidase assay, PDE8A strain DDP13
# Assay type: cell-based, murine
# Conditions: possibly a permeability problem in the yeast
# Procedure: β-galactosidase assays and characterization of 5FOA-sensitivity were carried out as previously described^10. cAMP assays were performed on exponential phase cells grown in EMM complete medium (3% glucose), using the Assay Designs cAMP EIA kit, according to manufacturer's instructions (Assay Designs, Ann arbor, MI).
# The effect of known PDE inhibitors on the expression of the fbp1-lacZ fusion in murine PDE-expressing strains was tested. […] For Table 4 β-galactosidase activity was determined from 3 to 4 independent exponential phase cultures. The average±SD represents specific activity per milligram of soluble protein.
row,Inhibition of PDE8A in yeast,Structure (SMILES)
1,not able to be inhibited,OCCN(CCO)c1nc(N2CCCCC2)c2nc(N(CCO)CCO)nc(N3CCCCC3)c2n1 [dipyridamole]

# System: PDE4A, PDE4B, PDE4D, PDE7A
# Assay: Overall PDE inhibitor profile from the yeast assays (table footnotes, summary)
# Assay type: cell-based
# Conditions: not given
# Source text: PDE inhibitors were identified using methods described herein, such as high throughput drug screens on genetically engineered fission yeast strains that express drug targets (e.g., PDE4A and/or PDE4B, which are anti-inflammatory targets). PDE inhibitors were identified based on their ability to stimulate growth and compounds were identified because they were effective in live cells. In addition, targets used in the assays are full-length proteins (as opposed to simply the catalytic domain) and the assay used included a built-in toxicity test, permeability test and stability test. The inhibitors identified display a very high degree of target specificity. Compounds identified include inhibitors that act on two of three PDE4 family enzymes and inhibitors that act on combinations of PDE4 and PDE7 strains. […] Limited inhibition of PDE4D by a PDE inhibitor is desirable, in view of the fact that inhibition of PDE4D causes emesis and cardiac arrhythmias. Subtype specificity was confirmed by means of cAMP assays.
# (§1) Cells were pregrown in EMM medium [MP Biomedicals (Solon, OH), 3% glucose, filter-sterilized to avoid carmelization, which would introduce variability into the optical density of the medium] containing from 0 mM to 2.5 mM cAMP (or either 0.5 mM or 1.0 mM cGMP). This was to repress expression of the fbp1-ura4 reporter prior to exposure of cells to 5FOA medium. Cells were grown at 30° C. to exponential phase (approximately 10^7 cells/ml). Cells were collected by centrifugation and resuspended in 5FOA medium, and 25 μl were transferred to 384-well microtiter dishes (untreated, with flat clear bottoms) that had been pre-filled with 25 μl 5FOA medium and pre-pinned with 100 nl of compounds (stock solutions were generally 10 mM). Starting cell concentrations ranged from 0.5×10^5 to 4×10^5 cells/ml depending on the screening strain. […] Other positive control dishes contained 5 mM cAMP in the 5FOA medium for PDEs that lack appropriate control compounds. Cultures were grown for 48 hours at 30° C., sealed in an airtight container with moist paper towels to prevent evaporation. Optical densities (OD600) of cultures were measured using a microplate reader. Bioinformatic analysis of the results to determine composite Z scores was performed as previously described (1, 3).
row,Structure (SMILES),PDE inhibitor profile in words (table footnote / summary)
1,N#Cc1sc2sc(C#N)c(-c3ccc(Cl)cc3)c2c1N [Compound 30-3],(3) Little/no activity under conditions used
2,"C=Cn1c2ccccc2c2nc3ccccc3nc21 [2033, H06]","(1) Moderate to strong PDE4A, 4B inhibitor"
3,COC(=O)C1=C(C)N(C)C(=O)/C1=C\c1cccs1 [Compound 27-1],(1) Strong PDEA5 inhibitor
4,CCC(=O)C1=C(C)N(c2cccc(C(F)(F)F)c2)C(=O)/C1=C\c1cccs1 [Compound 27-7],(3) Strong PDE4A5 inhibitor
5,CCOC(=O)c1sc2sc(C(=O)OCC)c(-c3ccco3)c2c1N [Compound 30-1],(4) Weak PDE4A inhibitor
6,"C=CCn1c2ccc(Br)cc2c2nc3ccccc3nc21 [2019, G03]","(2)-(4) Moderate PDE4A, 4B inhibitors"
7,"C=CCn1c2ccc(Br)cc2c2nc3ccccc3nc21 [2017, C18]","(2)-(4) Moderate PDE4A, 4B inhibitors"
8,N#Cc1sc2sc(C#N)c(-c3cccs3)c2c1N [Compound 30-2],(1) Weak PDE7A inhibitor
9,"CC(C)Cn1c2ccc(Br)cc2c2nc3ccccc3nc21 [2015, L04]",(5) Moderate 4B inhibitor
10,CC(C)(C)c1c(C#N)sc2sc(C#N)c(N)c12 [Compound 30-4],(3) Little/no activity under conditions used
11,"CCCCn1c2ccccc2c2nc3ccccc3nc21 [2015, P06]","(2)-(4) Moderate PDE4A, 4B inhibitors"
12,Cc1cc(C)nc(SCC[S+]([O-])c2ccc(C(C)(C)C)cc2)n1 (centres unmarked) [Compound 26-2],(2) Moderate 4A inhibitor
13,COc1ccc2c(c1)[C@]1(C)CCC[C@@](C)(CO)C1CC2 (some centres unmarked) [Compound 2067M03],"(1) Strong PDE7A inhibitor, Weak to moderate PDE4A, 4B inhibitor"
14,COC(=O)C1=C(C)N(c2cccc(C)c2)C(=O)/C1=C\c1cccs1 [Compound 27-5],"(2) Strong PDE4A, 4B inhibitor, Moderate PDE4D inhibitor"
15,N#Cc1sc2sc(C#N)c(-c3ccco3)c2c1N [Compound 30],(2) Strong PDE7A inhibitor
16,"C=CCn1c2ccccc2c2nc3ccccc3nc21 [1427, P20]","(3) Strong 4B, Moderate 4A inhibitor"
17,COC(=O)C1=C(C)N(Cc2ccccc2)C(=O)/C1=C\c1cccs1 [Compound 27-4],"(1) Strong PDE4A, 4B inhibitor"
18,CCC(=O)C1=C(C)N(c2ccc(F)cc2)C(=O)/C1=C\c1cccs1 [Compound 27-6],"(4) Strong PDE4A, 4B inhibitor, Moderate PDE7A inhibitor"
19,"CC(C)Cn1c2ccccc2c2nc3ccccc3nc21 [1422, M02]",(1) Strong PDE4A inhibitor
20,COC(=O)C1=C(C)N(CC(C)C)C(=O)/C1=C\c1cccs1 [Compound 27-3],"(1) Strong PDE4A, 4B inhibitor"
21,"O=C(O)Cn1c2ccc(Cl)cc2c2nc3ccccc3nc21 [1429, L06]","(4) Moderate PDE4A, 4B inhibitor"
22,"CCCCn1c2ccccc2c2nc3ccccc3nc21 [2013, I20]",(2) Strong PDE4A inhibitor
23,Cc1ccc2c(c1)CC[C@@H]1CC(=O)CC[C@@]21C [Compound 2158J12],(2) Strong PDE7A and PDE4s (including D) inhibitor
24,COC(=O)C1=C(C)N(c2ccccc2Cl)C(=O)/C1=C\c1ccco1 [Compound 27-8],"(2) Strong PDE4A, 4B inhibitor"
25,COC(=O)C1=C(C)N(C)C(=O)/C1=C\c1cccs1 [Compound 27-2],"(2) Strong PDE4A, 4B inhibitor; Moderate PDE4D inhibitor"

# Biological target: T2, PDE7A (Homo sapiens, UniProt Q13946)
# T2 construct: targets used in the assays are full-length proteins (as opposed to simply the catalytic domain); expressed in transfected cells; host or cells: Schizosaccharomyces pombe, gene integrated at the cgs2 locus
# T2 sequence (Q13946 whole entry, the tested form may be a part): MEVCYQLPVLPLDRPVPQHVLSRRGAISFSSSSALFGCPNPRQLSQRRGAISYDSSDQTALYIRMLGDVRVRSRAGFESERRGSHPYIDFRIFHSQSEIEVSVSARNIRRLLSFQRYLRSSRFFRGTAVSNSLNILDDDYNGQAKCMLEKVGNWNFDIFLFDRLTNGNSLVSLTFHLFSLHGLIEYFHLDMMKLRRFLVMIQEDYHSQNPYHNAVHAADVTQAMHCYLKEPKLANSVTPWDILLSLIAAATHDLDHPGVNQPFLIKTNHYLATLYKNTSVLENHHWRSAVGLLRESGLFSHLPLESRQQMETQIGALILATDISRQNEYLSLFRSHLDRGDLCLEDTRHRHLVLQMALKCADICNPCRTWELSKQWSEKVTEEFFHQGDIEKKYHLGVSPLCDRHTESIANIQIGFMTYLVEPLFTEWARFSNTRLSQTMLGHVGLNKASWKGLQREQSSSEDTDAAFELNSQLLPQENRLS
# Assay: Fission yeast 5FOA growth assay, strain expressing PDE7A
# Assay type: cell-based
# Conditions: 5FOA growth
# Procedure: as §1
row,"ED50, PDE 7A",Structure (SMILES)
1,ND ND weak activity ND ND,CC(C)(C)c1c(C#N)sc2sc(C#N)c(N)c12 [Compound 30-4]

# System: PDE2A, PDE4A, PDE4B, Cgs2
# Assay: High throughput 5FOA growth screens of bioactive libraries
# Assay type: cell-based, murine; Schizosaccharomyces pombe
# Conditions: average 20 μM; composite Z score cut-off ≧8.53
# Procedure: High throughput drug screens were carried out at the Broad Institute's Chemical Biology Program screening facility (Broad Institute, Cambridge, Mass.). Depending upon the strain, cultures were pregrown to exponential phase in EMM complete medium containing from 0.5 to 2.5 mM cAMP to repress fbp1-ura4 transcription. […] Starting cell concentrations ranged from 0.5×10^5 to 4×10^5 cells/ml depending on the screening strain. […] Other positive control dishes contained 5 mM cAMP in the 5FOA medium. Cultures were grown for 48 hours at 30° C., sealed in an airtight container with moist paper towels to prevent evaporation. Optical densities (OD600) of cultures were measured using a microplate reader. Bioinformatic analysis of the results to determine composite Z scores was performed as previously described^30, 31.
row,Structure (SMILES),Result in high throughput screens for 5FOA-resistant growth
1,COc1c2ccoc2cc2oc(C)cc(=O)c12 [visnagin],identified
2,Cc1cc2cc3c(C)cc(=O)oc3c(C)c2o1 [trioxsalen],identified
3,COc1c2occc2c(OC)c2c(=O)cc(C)oc12 [khellin],identified

# Biological target: T3, PDE4D3 (Homo sapiens, UniProt Q08499)
# T3 construct: targets used in the assays are full-length proteins (as opposed to simply the catalytic domain); expressed in transfected cells; host or cells: Schizosaccharomyces pombe, gene integrated at the cgs2 locus
# T3 sequence (Q08499 1-673 isoform Q08499-2): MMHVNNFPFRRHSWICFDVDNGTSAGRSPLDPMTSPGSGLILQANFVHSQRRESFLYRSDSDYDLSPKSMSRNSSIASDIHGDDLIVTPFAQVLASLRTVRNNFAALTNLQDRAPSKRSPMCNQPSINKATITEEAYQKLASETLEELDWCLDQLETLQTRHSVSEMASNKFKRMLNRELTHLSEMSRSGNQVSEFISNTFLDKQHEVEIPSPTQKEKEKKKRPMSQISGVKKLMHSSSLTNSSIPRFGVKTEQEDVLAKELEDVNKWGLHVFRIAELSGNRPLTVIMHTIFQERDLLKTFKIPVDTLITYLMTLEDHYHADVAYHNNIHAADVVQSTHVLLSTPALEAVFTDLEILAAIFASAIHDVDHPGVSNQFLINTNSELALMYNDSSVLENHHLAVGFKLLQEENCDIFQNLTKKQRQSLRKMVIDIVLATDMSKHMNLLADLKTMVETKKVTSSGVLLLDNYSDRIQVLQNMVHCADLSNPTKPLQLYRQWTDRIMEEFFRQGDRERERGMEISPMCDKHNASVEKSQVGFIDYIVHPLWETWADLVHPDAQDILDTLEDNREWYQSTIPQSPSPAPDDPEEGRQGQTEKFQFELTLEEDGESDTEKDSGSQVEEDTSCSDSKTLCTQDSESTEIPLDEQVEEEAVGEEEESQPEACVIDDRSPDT
# Assay: IC50 on PDE4D3
# Assay type: biochemical
# Conditions: read-out: IC50, PDE 4D3
row,IC50,Structure (SMILES)
1,35 nM,CC(C)n1c2ccc(Cl)cc2c2nc3ccccc3nc21 [Compound 35]

# Biological target: T4, PDE4A1 (Mus musculus, UniProt O89084)
# T4 construct: targets used in the assays are full-length proteins (as opposed to simply the catalytic domain); expressed in transfected cells; host or cells: Schizosaccharomyces pombe, gene integrated at the cgs2 locus
# T4 sequence (O89084 1-610 isoform O89084-2): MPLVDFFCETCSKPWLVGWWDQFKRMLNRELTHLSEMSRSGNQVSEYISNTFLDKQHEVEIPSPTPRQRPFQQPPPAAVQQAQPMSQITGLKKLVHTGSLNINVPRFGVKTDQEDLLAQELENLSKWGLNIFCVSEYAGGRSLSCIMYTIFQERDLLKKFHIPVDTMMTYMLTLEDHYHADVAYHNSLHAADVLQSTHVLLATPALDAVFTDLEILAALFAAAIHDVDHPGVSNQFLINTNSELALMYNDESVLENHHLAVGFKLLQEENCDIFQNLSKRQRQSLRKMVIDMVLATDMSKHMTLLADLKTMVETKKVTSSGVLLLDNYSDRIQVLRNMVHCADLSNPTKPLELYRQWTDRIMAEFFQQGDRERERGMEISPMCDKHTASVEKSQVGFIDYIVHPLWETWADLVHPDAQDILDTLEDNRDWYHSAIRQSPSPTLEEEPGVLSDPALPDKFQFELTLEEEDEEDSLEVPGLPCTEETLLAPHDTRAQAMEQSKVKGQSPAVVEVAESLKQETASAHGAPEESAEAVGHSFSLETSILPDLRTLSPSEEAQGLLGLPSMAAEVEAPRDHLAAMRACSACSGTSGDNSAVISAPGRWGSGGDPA
# Assay: IC50 on PDE4A1
# Assay type: biochemical, murine
# Conditions: read-out: IC50, PDE 4A1
row,IC50,Structure (SMILES)
1,100 nM,CC(C)n1c2ccc(Cl)cc2c2nc3ccccc3nc21 [Compound 35]

# Source: US20100179158A1, “INHIBITORS OF CYCLIC AMP PHOSPHODIESTERASES” (priority 2007, published 2010)
